In EP1200395B1, “UREA DERIVATIVES AS INHIBITORS OF CCR-3 RECEPTOR” (KIRIN BEER KABUSHIKI KAISHA, priority 1999, dated 2001):

Experiments:
[1] = tested on: human-derived eosinophils; experiment: Eotaxin-induced chemotaxis of cultured eosinophils; format: cell-based; details: 10.00 µM compound, human eotaxin 1 x 10^-9 M, 37°C for 1 hour; for inhibition at 10 µM: Eosinophil
Method: The inhibitory activity of the compounds against eotaxin-mediated chemotaxis of human-derived eosinophils was determined assay described below. Eosinophils were prepared from culture of human cord blood mononuclear cells as described by Ohashi, H. et al., Int Arch Allergy Immunol. (1999) 118, 44-50. For the assay, eosinophils were resuspended at 1 x 10^7 cells/ml in assay medium (RPMI 1640 medium containing 0.1 % bovine serum albumin (BSA)). The chemotaxis assay was performed in a 24-well culture plate. Human eotaxin suspended in assay medium was added into wells at 1 x 10^-9 M with test compounds at various concentrations. For a positive control, eotaxin was added without a test compound, and for a negative control, neither eotaxin nor a test compound was added to the wells. Chemotaxicell (Kurabo Co., Ltd.) having 5 micrometers pore size were inserted into each well and 100 microliters of eosinophil suspension were added to the top chamber. The plates were incubated at 37°C for 1 hour. After incubation, migrated cells in lower wells were diluted and counted by particle size distribution analyzer (CDP-500, Sysmex Co., Ltd.).

CCR-3 [2] = target: T1, CCR-3 (Homo sapiens, UniProt P51677); experiment: Eotaxin-induced chemotaxis of CCR-3 transfectant cells (CCR3/U937); format: cell-based; design: expressed in transfected cells; host or cells: U937; details: eotaxin 1 x 10^-9 M; for inhibition at 10 µM: U-937; for inhibition at 10 µM / Chemotaxis Assay 10 µM (inhibition %): 10 µM test compound; for CCR-3 Transfectant Chemotaxis Assay 6.25 µg/ml (inhibition %): 6.25 µg/ml test compound, CCR3/U937 cells (Table 3b)
T1 sequence (P51677 1-355): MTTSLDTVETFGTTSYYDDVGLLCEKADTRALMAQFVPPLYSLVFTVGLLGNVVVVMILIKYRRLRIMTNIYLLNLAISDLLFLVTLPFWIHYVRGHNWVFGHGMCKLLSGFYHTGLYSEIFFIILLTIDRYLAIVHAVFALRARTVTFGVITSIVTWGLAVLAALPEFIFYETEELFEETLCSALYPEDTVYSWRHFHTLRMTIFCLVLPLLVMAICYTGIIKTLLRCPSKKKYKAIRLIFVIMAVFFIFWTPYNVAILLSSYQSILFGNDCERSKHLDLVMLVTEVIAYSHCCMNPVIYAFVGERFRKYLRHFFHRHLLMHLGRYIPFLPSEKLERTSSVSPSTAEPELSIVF

[3] = tested on: collagen-induced arthritis; experiment: Type II collagen-induced arthritis in mice, clinical score; format: in vivo, Male DBA/1 mice; details: 20 mg/kg per day subcutaneously starting at 2nd immunization; versus control vehicle; Figure 1A/1B
CCR-3 [4] = target: T1, CCR-3; experiment: Calcium mobilization assay (inhibition of eotaxin-induced intracellular calcium mobilization in CCR3/HEK293 cells); format: cell-based; design: expressed in transfected cells; details: 6.25 µg/ml test compound; eotaxin 10 nM; CCR3/HEK293 cells (Table 2a)
Method: Compounds 93-162 used in this assay were synthesized by using the method described in Example 6.
CCR-3 transfectant cells (CCR3/HEK293) were isolated and resuspended with assay buffer (20 mM HEPES, 125 mM NaCl, 5 mM KCl; 0.5 mM glucose, 1 mM CaCl2, 1 mM MgCl2, 0.1 % BSA). After washing CCR3/HEK293 cells with assay buffer, cells were loaded with Fura-2/AM in assay buffer for 1 hour at room temperature. Cells were washed and resuspended with assay buffer at 5 x 10^6 cells/ml in assay buffer, and placed in a tissue culture plate (Falcon, no. 3296). Test compounds dissolved in DMSO were added to the wells, followed by eotaxin (10 nM at final concentration). Cells were excited at 340 nm and 380 nm in a fluorimeter (ARGUS50, FDSS2000, Hamamatsu Photonics) and the relative ratio of the fluorescence emitted at 510 nm was recorded. For a control, DMSO without a test compound was added. Intracellular calcium mobilization was calculated as described in Krogel C. et al. , FEBS Let. (1989) 243 , 41-46.

Row | Structure (SMILES) | Ca^2+ mobilization 6.25 µg/ml (inhibition %) (CCR-3 [4]) | CCR-3 Transfectant Chemotaxis Assay 6.25 µg/ml (inhibition %) (CCR-3 [2]) | also measured
1 | CCN(CCCNC(=O)Nc1ccccc1)CCc1ccc(Cl)cc1 [Compound 1, N-Phenylcarbamoyl-N'-[2-(4-chlorophenyl)ethyl]-N'-ethyl-1,3-diaminopropane] | – | – | inhibition at 10 µM [1]: 100%; inhibition at 10 µM (CCR-3 [2]; CCR3/U937 cells (Table 3a)): 100%
2 | O=C(O)CCCN(CCCNC(=O)Nc1ccc(Br)cc1)C1CCCc2ccccc21 (centres unmarked) [Compound 60, 4-[[3-(4-Bromophenylureido)propyl](1,2,3,4-tetrahydro-1-naphthyl)amino]butanoic acid] | – | – | inhibition at 10 µM [1]: 100%; clinical score, collagen-induced arthritis [3]: marked prevention in clinical score; inhibition at 10 µM (CCR-3 [2]; CCR3/U937 cells (Table 3a)): 98%
3 | CC[N+](CC)(CCCNC(=O)Nc1ccccc1)CCc1ccc(Cl)cc1 [Compound 91, [3-(Phenylureido)propyl][2-(4-chlorophenyl)ethyl]-diethylammonium iodide] | – | – | inhibition at 10 µM [1]: 100%; inhibition at 10 µM (CCR-3 [2]; CCR3/U937 cells (Table 3c)): 100%
4 | O=C(NCCCN(CCc1ccccc1)CCc1c[nH]cn1)Nc1ccc(Br)cc1 [Compound 120] | 57% | 34% | –
5 | O=C(O)CCCN(CCCNC(=O)Nc1ccc(Br)cc1)Cc1ccccc1 [Compound 67] | – | – | Cultured Eosinophil Chemotaxis assay 10.00 µM (inhibition %) [1]: 71%; Chemotaxis Assay 10 µM (inhibition %) (CCR-3 [2]; CCR3/U937 cells (Table 3a)): 100%
6 | CC[N+](CC)(CCCNC(=O)Nc1ccc(Br)cc1)CCc1ccc(Cl)cc1 [Compound 92, [3-(4-Bromophenylureido)propyl][2-(4-chlorophenyl)ethyl]-diethylammonium iodide] | – | – | inhibition at 10 µM [1]: 100%; inhibition at 10 µM (CCR-3 [2]; CCR3/U937 cells (Table 3c)): 100%
7 | O=C(O)CCCN(CCCNC(=O)Nc1ccc(Br)cc1)CCc1ccc(Cl)c(Cl)c1 [Compound 133] | 63% | 21% | –
8 | CCOC(=O)C1CC1CN(CCCNC(=O)Nc1cccc(C)c1)CCc1ccccc1 (centres unmarked) [Compound 138] | 56% | 31% | –
9 | CC(C)CCN(CCCNC(=O)Nc1ccc(Br)cc1)CCc1c[nH]cn1 [Compound 119] | 62% | 65% | –
10 | O=C(NCCCN(Cc1ccc2c(c1)OCO2)C[C@@H]1CCCN1)Nc1ccc(Br)cc1 [Compound 128] | 55% | 33% | –
11 | CC(C)CCN(CCCNC(=O)Nc1ccccc1-c1ccccc1)Cc1ccc2c(c1)OCO2 [Compound 99] | . 53% | 47% | –
12 | CSCCCN(CCCNC(=O)Nc1ccccc1-c1ccccc1)Cc1ccc2c(c1)OCO2 [Compound 100] | 53% | 54% | –
13 | O=C(NCCCN(CCc1ccccc1)CCc1ccc(Cl)c(Cl)c1)Nc1ccccc1-c1ccccc1 [Compound 114] | 51% | 22% | –
14 | C[C@H](c1ccccc1)N(CCCNC(=O)Nc1ccc(Br)cc1)CCCC(=O)O [Compound 61, 4-[[3-(4-Bromophenylureido)propyl][(1R)-1-phenylethyl]amino]-butanoic acid] | – | – | inhibition at 10 µM [1]: 100%; inhibition at 10 µM (CCR-3 [2]; CCR3/U937 cells (Table 3a)): 100%
15 | O=C(O)CCCN(CCCNC(=O)Nc1ccc(Cl)c(Cl)c1)C1CCCc2ccccc21 (centres unmarked) [Compound 65, 4-[[3-(3,4-Dichlorophenylureido)propyl](1,2,3,4-tetrahydro-1-naphthyl)amino]butanoic acid] | – | – | inhibition at 10 µM [1]: 100%; inhibition at 10 µM (CCR-3 [2]; CCR3/U937 cells (Table 3a)): 100%
16 | CCOC(=O)C1CC1CN(CCCNC(=O)Nc1ccccc1-c1ccccc1)CCc1ccc(Cl)c(Cl)c1 (centres unmarked) [Compound 115] | 57% | 62% | –
17 | COc1ccc(CCN(CCCNC(=O)Nc2ccccc2-c2ccccc2)CC(C)C)cc1OC [Compound 108] | 61% | 23% | –
18 | CC(C)CN(CCCNC(=O)Nc1ccc(Br)cc1)CCc1c[nH]cn1 [Compound 118] | 58% | 62% | –
19 | CC(C)CN(CCCNC(=O)Nc1ccccc1-c1ccccc1)CCc1ccc(Cl)c(Cl)c1 [Compound 113] | 51% | 66% | –
20 | CCOC(=O)C1CC1CN(CCCNC(=O)Nc1cccc(Cl)c1)CCc1ccc(Cl)c(Cl)c1 (centres unmarked) [Compound 155] | 69% | 56% | –
21 | CC(C)CN(CCCNC(=O)Nc1ccc(Br)cc1)Cc1ccc2c(c1)OCO2 [Compound 126] | 54% | 54% | –
22 | O=C(NCCCN(Cc1ccc2c(c1)OCO2)C[C@@H]1CCCN1)Nc1ccccc1-c1ccccc1 [Compound 102] | 63% | 19% | –
23 | CCN(CCCNC(=O)Nc1ccc(Br)cc1)CCc1ccc(Cl)cc1 [Compound 3, N-(4-Bromophenylcarbamoyl)-N'-[2-(4-chlorophenyl)ethyl]-N'-ethyl-1,3-diaminopropane] | – | – | inhibition at 10 µM [1]: 100%; inhibition at 10 µM (CCR-3 [2]; CCR3/U937 cells (Table 3a)): 100%
24 | O=C(NCCCN(CCc1ccc(Cl)c(Cl)c1)C[C@@H]1CCCN1)Nc1ccccc1-c1ccccc1 [Compound 116] | 68% | 82% | –
25 | COC(=O)CCCN(CCCNC(=O)Nc1ccc(Br)cc1)Cc1ccco1 [Compound 38] | – | – | Cultured Eosinophil Chemotaxis assay 10.00 µM (inhibition %) [1]: 11%; Chemotaxis Assay 10 µM (inhibition %) (CCR-3 [2]; CCR3/U937 cells (Table 3a)): 46%
26 | CCOC(=O)C1CC1CN(CCCNC(=O)Nc1cccc(Cl)c1)C1CCCc2ccccc21 (centres unmarked) [Compound 149] | 56% | 31% | –
27 | COc1cc(CN(CCCNC(=O)Nc2ccc(Br)cc2)CCCC(=O)O)cc(OC)c1OC [Compound 66] | – | – | Cultured Eosinophil Chemotaxis assay 10.00 µM (inhibition %) [1]: 44%; Chemotaxis Assay 10 µM (inhibition %) (CCR-3 [2]; CCR3/U937 cells (Table 3a)): 32%
28 | CC(C)CN(CCCNC(=O)Nc1ccc(Br)cc1)C1CCCc2ccccc21 (centres unmarked) [Compound 122] | 66% | 92% | –
29 | O=C(NCCCN(CCOCc1ccccc1)CCc1c[nH]cn1)Nc1ccc(Br)cc1 [Compound 121] | 52% | 64% | –
